According to patent US20210401786A1, “COMPOSITION FOR TREATING BURN WOUNDS” (priority 2020, published 2021):
“And” between values parts separate entries of the source, which are not always exact repeats. Equal entries are not always repeated.

How the values were obtained:
Format in all cases: in vivo, Guangxi Bama mini-pigs
[1] = tested on: P63; experiment: Immunohistochemistry of healed epidermis, IOD of P63; conditions: 4 weeks after treatment, Image-Pro Plus 6.0
Procedure: (§1) An immunohistochemistry analysis was performed to identify the localization and expression of specific molecular markers of keratinocytes in the healed epidermis.
(§2) It can be seen from FIG. 6 that the nuclear transcription factor P63 was mainly expressed in undifferentiated proliferating keratinocytes located in the basal layer. CK 10 was mainly expressed in mature differentiating keratinocytes. The expression of P63 and CK10 protein indicate the proliferation and differentiation of keratinocytes during epithelialization and repair of wounds. The higher the expression of P63 and CK10 protein, the faster the cells proliferate and differentiate. In the late stage of wound repair, fibroblasts secrete more collagen fibers, and a large number of collagen fibers increase and are densely arranged. Masson staining is used to mark the subcutaneous collagen fibers as green. The structure of each layer of the epidermis treated with the present invention is clear. The proliferative layer and the differentiated layer can be clearly identified by immunohistochemical staining.
(§3) Integrated optical density (IOD) values analysis of immunohistological images of P63 and CK10 are performed by Image-Pro Plus 6.0, as shown in Table 3 and FIGS. 8 to 9. […]

[2] = tested on: porcine full-thickness burn wounds; experiment: Porcine full-thickness burn wound healing experiment; conditions: for Wound healing time (days, X +/− S): 9 wounds per group
Procedure: (2) Experimental animals: Three female Guangxi Bama mini-pigs are 19-21 kilograms (provided by Tianjin Bainong Laboratory Animal Breeding Technology Co., Ltd., Tianjin, China). Animals were housed in isolated steel cages (80×100×110 cm^3) at 25° C. under natural lighting in the Experimental Animal Center, after thoroughly disinfecting the breeding room and the cages for animals with disinfectants and ultraviolet lamps. Non-experimental personnel are strictly prohibited from entering the breeding room during the experiment Animals were fed with standard pig chow twice daily, 150 grains at a time, and had access to water ad libitum (water is of the clean standard for tap water). The breeding room and cage are disinfected regularly on a weekly basis, and the feed tank and the water sink are cleaned before each feeding.
(3) Creation of porcine full-thickness burn wound models: The miniature pig was raised conventionally, fasted for 12 h, laid on one side, and injected with sumianxin injection into the hip muscle. Once anesthetized, the miniature pig was transferred to an operating table and a ventilation tube was placed in the mouth. After disinfection of the back of the ear, an indwelling needle of the auricle vein was placed for adequate analgesia and sedation. The surgical area on the back was prepared, disinfected with iodophor, on which a sterile sheet was spread, and an expected site of a burn was marked. The aluminum block mold (the net weight of the aluminum block mold is 265 g, and the load is 1 kg) was heated to 96° C. for 10 minutes, and was in close contact with the skin for 45 seconds. Each pig had 9 wounds. The operation on the back of the 3 mini pigs is consistent. After the operation, the wounds were disinfected with iodophor, on which cotton pads dressing and elastic sleeves were applied. Antibiotics were injected intravenously to prevent infection, and 2 ml of the awakening agent Lu Xingning was injected intravenously. The pigs were then transferred to the cages. One hour after waking up, the pigs were fed and given oral rehydration saline. Activities and signs of the pigs were closely observed. After the burn injury, local debridement and different treatments were performed on the wounds. Three weeks after injury, the wounds were covered by necrotic eschar, without exudate and dissolution reaction. Excisional debridement down to the fat layer was performed. Wounds were then dressed and covered with elasticated jackets to prevent animal-initiated damage. Preemptive antibiotics and analeptic Lu Xingning were administered i.v., then the animals were transferred to individual cages, and monitored closely for adverse outcomes during their post-procedure recovery. Post-surgical pain was managed with oral analgesia.
In order to verify the therapeutic effect of the composition of this application on burn wounds, the composition of Example 3 of this application, recombinant human epidermal growth factor rhEGF (5000 IU/mL, 15 mL, Shenzhen Watsin Genetech Ltd.) and physiological saline were used respectively to treat the full-thickness burn wounds of the pigs.
The wounds were photographed and measured at day 7, 14, 21, 28 after different treatments. It can be seen from FIG. 2 that the new granulation tissue of the wound is fresh and rosy without exudation. […]

[3] = tested on: CK10; experiment: Immunohistochemistry of healed epidermis, IOD of CK10; conditions: 4 weeks after treatment, Image-Pro Plus 6.0
Procedure: as §1, §2, §3

[4] = tested on: healed epidermis (proliferative layer and differentiated layer); experiment: Histologic epidermal thickness of healed porcine burn wounds
Procedure: as §1
The epidermis partitions into two layers: a proliferative layer and a differentiated layer.

recombinant human epidermal growth factor [rhEGF]
IOD (P63) (X +/− S) [1]: 21929.27 | wound healing, gross appearance ([2]; FIG. 2, versus saline group): heal faster than those of the saline group | residual wound area ([2]; FIG. 3, compared to the saline group, p<0.05): obviously reduced wound area at day 28 | wound healing rate ([2]; FIG. 4, compared to the saline group, p<0.05): obviously improved the wound healing rate at day 7, 14, 21 | Wound healing time (days, X +/− S) ([2]; Test Example 1, time to complete epithelialization): 23.56±4.85 days and 23.56 ± 4.85^2 days | Wound healing time (days, X +/− S) ([2]; Test Example 3): 23.56 ± 4.85^2 days | IOD (CK10) (X +/− S) [3]: 395254.15 | Thickness of differentiated layer (X +/− S) [4]: 246.20 μm | Thickness of proliferative layer (X +/− S) [4]: 35.92 μm
